Key:
c-Raf = c-Raf (Homo sapiens, UniProt P04049); assay: Luciferase-coupled chemiluminescence kinase assay (ATP consumption), c-Raf; assay type: biochemical; conditions: read-out: cRaf-1 IC50
Outline: (§1)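 Pre-incub. kinase […] + cpd, 30 min RT (20 mM Tris pH 7.5, 10 mM MgCl2, 0.03% TX-100, 1 mM DTT). Start w/ ATP, 3 h ambient. Luciferase-luciferin mix added and luminescence read. Total ATP use 25-60%. IC50 derived.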

B-Raf = B-Raf (Homo sapiens, UniProt P15056); assay: Luciferase-coupled chemiluminescence kinase assay (ATP consumption), B-Raf; assay type: biochemical; conditions: read-out: bRaf IC50
Sequence of B-Raf (P15056 whole entry): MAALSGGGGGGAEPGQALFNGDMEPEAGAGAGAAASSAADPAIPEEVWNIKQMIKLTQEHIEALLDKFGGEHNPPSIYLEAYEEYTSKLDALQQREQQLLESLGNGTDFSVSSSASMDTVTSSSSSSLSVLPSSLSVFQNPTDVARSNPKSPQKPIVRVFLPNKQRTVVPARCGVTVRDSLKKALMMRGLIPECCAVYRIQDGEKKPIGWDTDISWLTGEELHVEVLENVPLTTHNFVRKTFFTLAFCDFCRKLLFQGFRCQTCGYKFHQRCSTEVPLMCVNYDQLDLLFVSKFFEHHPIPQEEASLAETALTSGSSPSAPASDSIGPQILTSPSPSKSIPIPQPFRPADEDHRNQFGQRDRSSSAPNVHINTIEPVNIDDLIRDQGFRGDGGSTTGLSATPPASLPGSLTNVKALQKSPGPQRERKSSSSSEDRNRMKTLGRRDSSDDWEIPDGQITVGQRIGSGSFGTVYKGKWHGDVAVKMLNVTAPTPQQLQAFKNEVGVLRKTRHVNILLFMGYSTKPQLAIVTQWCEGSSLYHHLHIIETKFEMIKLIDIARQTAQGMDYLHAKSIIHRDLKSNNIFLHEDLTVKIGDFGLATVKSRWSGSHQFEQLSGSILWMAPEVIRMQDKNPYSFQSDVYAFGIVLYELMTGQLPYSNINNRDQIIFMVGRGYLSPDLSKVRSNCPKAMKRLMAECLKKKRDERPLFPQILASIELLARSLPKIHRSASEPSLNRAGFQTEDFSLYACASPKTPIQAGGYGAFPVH
Outline: as §1

Sequence of c-Raf (P04049 whole entry): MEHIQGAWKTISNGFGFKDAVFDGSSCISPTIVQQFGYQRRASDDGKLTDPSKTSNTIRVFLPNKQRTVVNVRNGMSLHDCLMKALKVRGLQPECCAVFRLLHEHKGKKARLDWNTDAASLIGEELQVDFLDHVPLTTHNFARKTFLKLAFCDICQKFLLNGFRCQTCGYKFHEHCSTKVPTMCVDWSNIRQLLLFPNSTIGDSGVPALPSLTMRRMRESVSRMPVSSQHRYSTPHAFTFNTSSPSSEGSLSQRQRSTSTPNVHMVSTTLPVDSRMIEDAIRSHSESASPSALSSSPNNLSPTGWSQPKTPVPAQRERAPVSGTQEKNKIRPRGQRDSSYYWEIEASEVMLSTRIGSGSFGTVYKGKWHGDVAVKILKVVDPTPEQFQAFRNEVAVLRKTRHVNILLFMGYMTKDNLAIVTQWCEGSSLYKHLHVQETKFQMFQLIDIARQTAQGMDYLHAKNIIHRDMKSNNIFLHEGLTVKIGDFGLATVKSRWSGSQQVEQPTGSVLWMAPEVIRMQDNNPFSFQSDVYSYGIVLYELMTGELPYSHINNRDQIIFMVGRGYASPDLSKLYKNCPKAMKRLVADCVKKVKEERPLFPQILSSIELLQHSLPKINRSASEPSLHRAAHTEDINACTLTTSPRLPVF

IC50 (c-Raf) [nM]	IC50 (B-Raf) [nM]	SMILES
< 100	< 100	COC(=O)Nc1nc2cc(C3(O)c4ccccc4C(=O)N3c3cccc(C)c3)ccc2[nH]1 (stereo not drawn) [Entry 115, methyl {5-[1-hydroxy-2-(3-methylphenyl)-3-oxo-2,3-dihydro-1H-isoindol-1-yl]-1H-benzimidazol-2-yl}carbamate]
1000 to 10000	1000 to 10000	COC(=O)Nc1nc2cc(C3(O)c4ccccc4C(=O)N3Cc3ccccc3OC)ccc2[nH]1 (stereo not drawn) [Entry 116, methyl [5-(1-hydroxy-2-{[2-(methyloxy)phenyl]methyl}-3-oxo-2,3-dihydro-1H-isoindol-1-yl)-1H-benzimidazol-2-yl]carbamate]
100 to 1000	100 to 1000	COC(=O)Nc1nc2cc(C3(O)c4ccccc4C(=O)N3Cc3cccc(OC)c3)ccc2[nH]1 (stereo not drawn) [Entry 117, methyl [5-(1-hydroxy-2-{[3-(methyloxy)phenyl]methyl}-3-oxo-2,3-dihydro-1H-isoindol-1-yl)-1H-benzimidazol-2-yl]carbamate]
≥ 10000	≥ 10000	COC(=O)Nc1nc2cc(C3(O)c4ccccc4C(=O)N3Cc3ccc(OC)cc3)ccc2[nH]1 (stereo not drawn) [Entry 118, methyl [5-(1-hydroxy-2-{[4-(methyloxy)phenyl]methyl}-3-oxo-2,3-dihydro-1H-isoindol-1-yl)-1H-benzimidazol-2-yl]carbamate]
100 to 1000	100 to 1000	COC(=O)Nc1nc2ccc(C3(O)c4ccccc4C(=O)N3Cc3ccc(F)cc3)cc2[nH]1 (stereo not drawn) [Entry 119, methyl (6-{2-[(4-fluorophenyl)methyl]-1-hydroxy-3-oxo-2,3-dihydro-1H-isoindol-1-yl}-1H-benzimidazol-2-yl)carbamate]
< 100	< 100	COC(=O)Nc1nc2ccc(C3(O)c4ccccc4C(=O)N3Cc3cccc(Br)c3)cc2[nH]1 (stereo not drawn) [Entry 120, methyl (6-{2-[(3-bromophenyl)methyl]-1-hydroxy-3-oxo-2,3-dihydro-1H-isoindol-1-yl}-1H-benzimidazol-2-yl)carbamate]
100 to 1000	100 to 1000	COC(=O)Nc1nc2cc(C3(O)c4ccccc4C(=O)N3Cc3cccc(I)c3)ccc2[nH]1 (stereo not drawn) [Entry 121, methyl (5-{1-hydroxy-2-[(3-iodophenyl)methyl]-3-oxo-2,3-dihydro-1H-isoindol-1-yl}-1H-benzimidazol-2-yl)carbamate]
< 100	< 100	COC(=O)Nc1nc2cc(C3(O)c4ccccc4C(=O)N3Cc3cccc(Cl)c3)ccc2[nH]1 (stereo not drawn) [Entry 122, methyl (5-{2-[(3-chlorophenyl)methyl]-1-hydroxy-3-oxo-2,3-dihydro-1H-isoindol-1-yl}-1H-benzimidazol-2-yl)carbamate]
< 100	< 100	COC(=O)Nc1nc2cc(C3(O)c4ccccc4C(=O)N3Cc3ccccc3F)ccc2[nH]1 (stereo not drawn) [Entry 123, methyl (5-{2-[(2-fluorophenyl)methyl]-1-hydroxy-3-oxo-2,3-dihydro-1H-isoindol-1-yl}-1H-benzimidazol-2-yl)carbamate]
100 to 1000	100 to 1000	COC(=O)Nc1nc2cc(C3(O)c4ccccc4C(=O)N3Cc3ccccn3)ccc2[nH]1 (stereo not drawn) [Entry 124, methyl {5-[1-hydroxy-3-oxo-2-(pyridin-2-ylmethyl)-2,3-dihydro-1H-isoindol-1-yl]-1H-benzimidazol-2-yl}carbamate]
< 100	< 100	O=C(Nc1nc2cc(C3(O)c4ccccc4C(=O)N3Cc3ccccc3)ccc2[nH]1)OCc1ccccc1 (stereo not drawn) [Entry 125, phenylmethyl {5-[1-hydroxy-3-oxo-2-(phenylmethyl)-2,3-dihydro-1H-isoindol-1-yl]-1H-benzimidazol-2-yl}carbamate]
< 100	< 100	O=C(Nc1nc2cc(C3(O)c4ccccc4C(=O)N3Cc3ccccc3)ccc2[nH]1)OCCF (stereo not drawn) [Entry 126, 2-fluoroethyl {5-[1-hydroxy-3-oxo-2-(phenylmethyl)-2,3-dihydro-1H-isoindol-1-yl]-1H-benzimidazol-2-yl}carbamate]
< 100	< 100	CCCOC(=O)Nc1nc2cc(C3(O)c4ccccc4C(=O)N3Cc3ccccc3)ccc2[nH]1 (stereo not drawn) [Entry 127, propyl {5-[1-hydroxy-3-oxo-2-(phenylmethyl)-2,3-dihydro-1H-isoindol-1-yl]-1H-benzimidazol-2-yl}carbamate]
1000 to 10000	1000 to 10000	COC(=O)Nc1nc2cc(C3(O)c4ccccc4C(=O)N3c3ccc(OC)cc3)ccc2[nH]1 (stereo not drawn) [Entry 128, methyl (5-{1-hydroxy-2-[4-(methyloxy)phenyl]-3-oxo-2,3-dihydro-1H-isoindol-1-yl}-1H-benzimidazol-2-yl)carbamate]
< 100	100 to 1000	COC(=O)Nc1nc2cc(C3(O)c4ccccc4C(=O)N3Cc3ccccc3Cl)ccc2[nH]1 (stereo not drawn) [Entry 129, methyl (5-{2-[(2-chlorophenyl)methyl]-1-hydroxy-3-oxo-2,3-dihydro-1H-isoindol-1-yl}-1H-benzimidazol-2-yl)carbamate]
100 to 1000	100 to 1000	COC(=O)Nc1nc2cc(C3(O)c4ccccc4C(=O)N3Cc3ccccc3Br)ccc2[nH]1 (stereo not drawn) [Entry 130, methyl (5-{2-[(2-bromophenyl)methyl]-1-hydroxy-3-oxo-2,3-dihydro-1H-isoindol-1-yl}-1H-benzimidazol-2-yl)carbamate]
< 100	< 100	COC(=O)Nc1nc2cc(C3(O)c4ccccc4C(=O)N3Cc3cccc(C)c3)ccc2[nH]1 (stereo not drawn) [Entry 131, methyl (5-{1-hydroxy-2-[(3-methylphenyl)methyl]-3-oxo-2,3-dihydro-1H-isoindol-1-yl}-1H-benzimidazol-2-yl)carbamate]
100 to 1000	1000 to 10000	COC(=O)Nc1nc2cc(C3(O)c4ccccc4C(=O)N3Cc3ccc(C)cc3)ccc2[nH]1 (stereo not drawn) [Entry 132, methyl (5-{1-hydroxy-2-[(4-methylphenyl)methyl]-3-oxo-2,3-dihydro-1H-isoindol-1-yl}-1H-benzimidazol-2-yl)carbamate]
< 100	< 100	COC(=O)Nc1nc2cc(C3(O)c4ccccc4C(=O)N3Cc3ccccc3C)ccc2[nH]1 (stereo not drawn) [Entry 133, methyl (5-{1-hydroxy-2-[(2-methylphenyl)methyl]-3-oxo-2,3-dihydro-1H-isoindol-1-yl}-1H-benzimidazol-2-yl)carbamate]
< 100	< 100	COC(=O)Nc1nc2cc(C3(O)c4ccccc4C(=O)N3c3cccc(Br)c3)ccc2[nH]1 (stereo not drawn) [Entry 134, methyl {5-[2-(3-bromophenyl)-1-hydroxy-3-oxo-2,3-dihydro-1H-isoindol-1-yl]-1H-benzimidazol-2-yl}carbamate]
< 100	< 100	COC(=O)Nc1nc2cc(C3(O)c4ccccc4C(=O)N3c3cccc(Cl)c3)ccc2[nH]1 (stereo not drawn) [Entry 135, methyl {5-[2-(3-chlorophenyl)-1-hydroxy-3-oxo-2,3-dihydro-1H-isoindol-1-yl]-1H-benzimidazol-2-yl}carbamate]
< 100	< 100	COC(=O)Nc1nc2cc(C3(O)c4ccccc4C(=O)N3c3cccc(F)c3)ccc2[nH]1 (stereo not drawn) [Entry 136, methyl {5-[2-(3-fluorophenyl)-1-hydroxy-3-oxo-2,3-dihydro-1H-isoindol-1-yl]-1H-benzimidazol-2-yl}carbamate]
< 100	< 100	COC(=O)Nc1nc2cc(C3(O)c4ccccc4C(=O)N3c3cccc(OC)c3)ccc2[nH]1 (stereo not drawn) [Entry 137, methyl (5-{1-hydroxy-2-[3-(methyloxy)phenyl]-3-oxo-2,3-dihydro-1H-isoindol-1-yl}-1H-benzimidazol-2-yl)carbamate]
100 to 1000	100 to 1000	COC(=O)Nc1nc2cc(C3(O)c4ccccc4C(=O)N3c3ccc(Br)cc3)ccc2[nH]1 (stereo not drawn) [Entry 138, methyl {5-[2-(4-bromophenyl)-1-hydroxy-3-oxo-2,3-dihydro-1H-isoindol-1-yl]-1H-benzimidazol-2-yl}carbamate]
< 100	< 100	COC(=O)Nc1nc2cc(C3(O)c4ccccc4C(=O)N3c3ccc(Cl)cc3)ccc2[nH]1 (stereo not drawn) [Entry 139, methyl {5-[2-(4-chlorophenyl)-1-hydroxy-3-oxo-2,3-dihydro-1H-isoindol-1-yl]-1H-benzimidazol-2-yl}carbamate]
< 100	< 100	COC(=O)Nc1nc2cc(C3(O)c4ccccc4C(=O)N3c3ccc(F)cc3)ccc2[nH]1 (stereo not drawn) [Entry 140, methyl {5-[2-(4-fluorophenyl)-1-hydroxy-3-oxo-2,3-dihydro-1H-isoindol-1-yl]-1H-benzimidazol-2-yl}carbamate]
< 100	< 100	COC(=O)Nc1nc2cc(C3(O)c4ccccc4C(=O)N3c3cc(C)cc(C)c3)ccc2[nH]1 (stereo not drawn) [Entry 141, methyl {5-[2-(3,5-dimethylphenyl)-1-hydroxy-3-oxo-2,3-dihydro-1H-isoindol-1-yl]-1H-benzimidazol-2-yl}carbamate]
< 100	< 100	COC(=O)Nc1nc2cc(C3(O)c4ccccc4C(=O)N3c3ccccc3F)ccc2[nH]1 (stereo not drawn) [Entry 142, methyl {5-[2-(2-fluorophenyl)-1-hydroxy-3-oxo-2,3-dihydro-1H-isoindol-1-yl]-1H-benzimidazol-2-yl}carbamate]
< 100	< 100	COC(=O)Nc1nc2cc(C3(O)c4ccccc4C(=O)N3c3ccccc3Cl)ccc2[nH]1 (stereo not drawn) [Entry 143, methyl {5-[2-(2-chlorophenyl)-1-hydroxy-3-oxo-2,3-dihydro-1H-isoindol-1-yl]-1H-benzimidazol-2-yl}carbamate]
< 100	< 100	COC(=O)Nc1nc2cc(C3(O)c4ccccc4C(=O)N3c3ccccc3C)ccc2[nH]1 (stereo not drawn) [Entry 144, methyl {5-[1-hydroxy-2-(2-methylphenyl)-3-oxo-2,3-dihydro-1H-isoindol-1-yl]-1H-benzimidazol-2-yl}carbamate]

Reference: patent US7846959B2, “Raf modulators and methods of use” (Exelixis, Inc., priority 2004, dated 2010)
